Data published in patent US20120135451A1, “Method and Apparatus for Evaluation of Toxicity” (BIOPHOS SA, priority 2009, published 2012).
Read-outs that look alike come from different tables or passages of the source.

Test system: boar spermatozoa
Experiment: Toxicity evaluation by motility of boar spermatozoa (Qualisperm)
Format: cell-based
Conditions: 30 minutes incubation, around 60 million/ml boar spermatozoa
Procedure: Quadruple samples of each test compound were prepared in varying concentrations by serial dilution in a 96 microwell-plate by serial dilution into XCell with DMSO. Equal volumes (50 μl) of boar spermatozoa in a concentration of around 60 million/ml were added to all sample solutions. Subsequently, the microwell plate was shaken and incubated for 30 minutes. The dosing was performed by using an automated TECAN® robot. After the incubation the sample solutions were pipetted on a Leja® slide and the motility of the spermatozoa was analysed using a Qualisperm® apparatus from Biophos AG. A dose response curve was obtained where % motile spermatozoa (all the moving spermatozoa), % progressive spermatozoa (share of spermatozoa above a pre-determined threshold, here: above 25 μm/sec), or mean speed of total motile spermatozoa was plotted as a function of the logarithmic concentration of the test compound expressed in mM. From the dose curve IC50 values were calculated.

SMILES | IC50 (0.5 h, % motile spermatozoa (all moving spermatozoa), read-out: IC50 % motille) [µM] | IC50 (0.5 h, % progressive spermatozoa (above 25 μm/sec), read-out: IC50 % progressiv) [µM] | IC50 (0.5 h, mean speed of total motile spermatozoa, read-out: IC50 mean speed) [µM] | IC50 (% motile spermatozoa (all moving spermatozoa), read-out: IC50 % motille) [µM] | IC50 (% progressive spermatozoa (above 25 μm/sec), read-out: IC50 % progressiv) [µM] | IC50 (mean speed of total motile spermatozoa, read-out: IC50 mean speed) [µM]
CC(C)C(=O)Nc1ccc([N+](=O)[O-])c(C(F)(F)F)c1 [Flutamide] | 95 | 62 | 72 |  |  | 
CC(=O)N1CCN(c2ccc(OCC3COC(Cn4ccnc4)(c4ccc(Cl)cc4Cl)O3)cc2)CC1 (stereo not drawn) [Ketokonazole, Ketoconazole] |  |  |  | 209 | 205 | 197
